Assays:
[1] = weight-gain oxidative stability test of treated fish oil (induction period), Example 2; format: physicochemical; conditions: for induction period (IP; time before rapid oxygen uptake): stored at about 35° C.
Procedure: The oxidative stability of oils can be compared by accelerated tests, such as the weight-gain method, where oil samples are stored at elevated temperatures and oxygen atmosphere. The weight increase due to oxygen absorption is measured and plotted against time. At a certain time, depending on the oils resistance to oxidation, weight increase will be rapid, and the time before this happens is noted as the oils induction time (IP).
0.083 moles of amine/amide was added to 95 g of a fish oil, which was progressively heated to 90° C. (A series) or 140° C. (B series) during agitation to dissolve the substances in the oil. After 30 minutes at this temperature, the oil was cooled and filtered.
Three 3-g samples of filtered untreated oil, and three 3-g samples of filtered oil from each of the treatments described in table 1, were placed in identical petri dishes (60 mm, with loose fitting lids) and accurately weighed. The petri dishes were placed in an oven at about 35° C., and the weight increase related to oxygen uptake (oxidation) was recorded by weighing 3 times/week.
The results given in FIG. 4 and in FIG. 5 indicates large differences in stability as measured by induction periods (IP; i.e. the time before rapid oxygen uptake), ranging from 17 days (oils heated to 90° C. or 140° C. without any substance added) and 19 days (untreated oil), to 95 days (oils treated with hexylamine at 90° C., or allylurea at 140° C., or N,N′-dimethylurea at 140° C.).

solubility in oil = format: physicochemical; conditions: ambient temperature
[2] = fish oil treated with 0.083 moles per 95 g oil at 140° C. for 30 minutes

Structure (SMILES): C=CCNC(N)=O [allylurea, Allylurea]
- induction period (IP; time before rapid oxygen uptake) [1, 2]: 95 days

Structure (SMILES): CCCCCCN [A3, Hexylamine]
- stability in prolonged storage ([1]; fish oil treated at 90° C., experiment continued for another 70 days, about 35° C.): still were stable
- induction period (IP; time before rapid oxygen uptake) ([1]; fish oil treated with 0.083 moles per 95 g oil at 90° C. for 30 minutes): 95 days

Structure (SMILES): NC(N)=O [urea]
- solubility in oil (solubility in oil): approx. 1 g per kg oil

Structure (SMILES): CNC(=O)NC [B4, N,N′-dimethylurea]
- day of rapid weight increase, prolonged storage ([1]; fish oil treated at 140° C., experiment continued for another 70 days, about 35° C.): 135 days
- induction period (IP; time before rapid oxygen uptake) [1, 2]: 95 days
